Experimental data taken from patent US20070066682A1, “Arylalkylamine vanadium (V) salts for the treatment and/or prevention of Diabetes mellitus” (priority 2005, published 2007).

Columns and labels:
[1] = target: T1, Human SSAO (Homo sapiens, UniProt Q16853); assay: SSAO activity, hydrogen peroxide production relative to benzylamine (human); type: biochemical; conditions: compound at 1 mM
T1 sequence (Q16853 1-763): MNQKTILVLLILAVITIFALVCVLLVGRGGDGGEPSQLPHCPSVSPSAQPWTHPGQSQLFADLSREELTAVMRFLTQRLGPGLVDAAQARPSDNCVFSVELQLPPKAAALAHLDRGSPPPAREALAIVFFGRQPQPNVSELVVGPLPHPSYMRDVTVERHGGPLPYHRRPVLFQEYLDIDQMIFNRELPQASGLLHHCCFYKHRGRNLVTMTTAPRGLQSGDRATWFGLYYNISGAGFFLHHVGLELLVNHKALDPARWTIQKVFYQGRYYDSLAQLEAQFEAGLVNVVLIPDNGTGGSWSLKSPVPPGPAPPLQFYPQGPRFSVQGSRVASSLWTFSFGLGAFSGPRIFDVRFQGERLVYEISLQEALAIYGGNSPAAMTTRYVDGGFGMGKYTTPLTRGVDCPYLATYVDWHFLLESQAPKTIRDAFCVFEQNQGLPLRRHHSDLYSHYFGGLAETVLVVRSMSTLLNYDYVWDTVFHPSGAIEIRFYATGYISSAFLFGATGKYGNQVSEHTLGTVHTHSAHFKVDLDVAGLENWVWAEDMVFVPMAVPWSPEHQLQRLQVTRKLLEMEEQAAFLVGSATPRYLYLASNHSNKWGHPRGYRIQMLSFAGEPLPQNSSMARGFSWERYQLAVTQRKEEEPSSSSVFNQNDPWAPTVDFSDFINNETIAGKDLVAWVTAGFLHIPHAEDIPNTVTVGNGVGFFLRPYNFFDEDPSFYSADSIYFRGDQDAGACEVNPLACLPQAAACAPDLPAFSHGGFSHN
Method: (§1) The continuous spectrophotometric detection of SSAO-dependent H2O2 production based on a peroxidase-coupled reaction was performed as previously described by Abella et al. (2004, Diabetologia 47: 429-438) and following the procedure described by Holt et al., (1997, Anal. Biochem. 244: 384-392).
(§2) Compounds listed in Table 1 were prepared according to the methods described above, purity was determined by HPLC at 220 nm, molecular weight calculated by mass spectrometer. Human and mouse SSAO activity was determined by detecting the production of hydrogene peroxide in the presence of the different compounds present at 1 mM for human and 100 μM for mice activity measurements. Compounds in Table 2″ were similarly assayed. Values are means of percentages relative to benzylamine-related hydrogen production. Kinetic Parameters for select compounds are set forth in Table 3 (Mouse SSAO) and Table 4 (Human SSAO).

[2] = target: T2, mouse SSAO (Mus musculus, UniProt O70423); assay: SSAO activity, hydrogen peroxide production relative to benzylamine (mouse); type: biochemical; conditions: compound at 100 μM
T2 sequence (O70423 1-765): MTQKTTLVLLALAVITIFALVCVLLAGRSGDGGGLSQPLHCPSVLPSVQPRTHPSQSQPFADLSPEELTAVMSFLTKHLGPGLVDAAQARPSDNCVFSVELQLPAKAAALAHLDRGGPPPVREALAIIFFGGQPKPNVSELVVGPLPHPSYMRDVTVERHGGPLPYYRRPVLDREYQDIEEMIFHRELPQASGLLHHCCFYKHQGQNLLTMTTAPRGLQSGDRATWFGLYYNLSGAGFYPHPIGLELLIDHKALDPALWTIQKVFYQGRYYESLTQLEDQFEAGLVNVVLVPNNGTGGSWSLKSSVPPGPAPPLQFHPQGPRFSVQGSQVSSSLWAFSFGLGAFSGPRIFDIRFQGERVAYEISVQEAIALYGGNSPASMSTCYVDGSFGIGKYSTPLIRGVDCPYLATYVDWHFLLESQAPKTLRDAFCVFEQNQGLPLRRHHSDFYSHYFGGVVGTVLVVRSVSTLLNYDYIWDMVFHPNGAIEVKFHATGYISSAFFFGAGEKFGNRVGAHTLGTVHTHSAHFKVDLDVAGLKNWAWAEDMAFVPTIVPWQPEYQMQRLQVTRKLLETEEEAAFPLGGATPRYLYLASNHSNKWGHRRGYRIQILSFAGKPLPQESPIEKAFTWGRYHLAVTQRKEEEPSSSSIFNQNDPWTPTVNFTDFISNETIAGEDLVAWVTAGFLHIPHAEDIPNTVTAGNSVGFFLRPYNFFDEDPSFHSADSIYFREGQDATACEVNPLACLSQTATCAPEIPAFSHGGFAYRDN
Method: as §1, §2

NCc1ccccc1 [Entry 1, Benzylamine, reference compound]
SSAO activity (% relative to benzylamine) Human [1]: 100% | SSAO activity (% relative to benzylamine) Mouse [2]: 100%

NCc1ccc(F)cc1 [Entry 3, (4-fluorophenyl)methanamine]
SSAO activity (% relative to benzylamine) Human [1]: 31.70% | SSAO activity (% relative to benzylamine) Mouse [2]: 77.20%

Cc1ccc(CN)cc1 [Entry 4, p-tolylmethanamine]
SSAO activity (% relative to benzylamine) Human [1]: 0.00% | SSAO activity (% relative to benzylamine) Mouse [2]: 0.00%

CCc1ccc(CN)cc1 [Entry 5]
SSAO activity (% relative to benzylamine) Human [1]: 0.00% | SSAO activity (% relative to benzylamine) Mouse [2]: 17.30%

CC(C)(C)c1ccc(CN)cc1 [Entry 6, (4-tert-butylphenyl)methanamine]
SSAO activity (% relative to benzylamine) Human [1]: 0.00% | SSAO activity (% relative to benzylamine) Mouse [2]: 1.00%

CC(C)c1ccc(CN)cc1 [Entry 7, (4-isopropylphenyl)methanamine]
SSAO activity (% relative to benzylamine) Human [1]: 0.00% | SSAO activity (% relative to benzylamine) Mouse [2]: 0.00%

NCc1ccc(C(F)(F)F)cc1 [Entry 8, (4-(trifluoromethyl)phenyl)methanamine]
SSAO activity (% relative to benzylamine) Human [1]: 0.50% | SSAO activity (% relative to benzylamine) Mouse [2]: 83.00%

NCc1ccc(OC(F)(F)F)cc1 [Entry 9, (4-(trifluoromethoxy)phenyl)methanamine]
SSAO activity (% relative to benzylamine) Human [1]: 0.00% | SSAO activity (% relative to benzylamine) Mouse [2]: 66.20%

COc1ccc(CN)c(OC)c1 [Entry 10, (2,4-dimethoxyphenyl)methanamine]
SSAO activity (% relative to benzylamine) Human [1]: 0.00% | SSAO activity (% relative to benzylamine) Mouse [2]: 0.00%

CCCCc1ccc(CN)cc1 [Entry 11, (4-butylphenyl)methanamine]
SSAO activity (% relative to benzylamine) Human [1]: 0.00% | SSAO activity (% relative to benzylamine) Mouse [2]: 27.00%

NCc1ccc(O)c(Br)c1 [Entry 13, 4-(aminomethyl)-2-bromophenol]
SSAO activity (% relative to benzylamine) Human [1]: 0.00% | SSAO activity (% relative to benzylamine) Mouse [2]: 0.00%

NCc1cccc([N+](=O)[O-])c1O [Entry 14, 2-(aminomethyl)-6-nitrophenol]
SSAO activity (% relative to benzylamine) Human [1]: 0.11% | SSAO activity (% relative to benzylamine) Mouse [2]: 5.47%

NCc1ccc(-c2ccccc2)cc1 [Entry 15, biphenyl-4-yl-methanamine]
SSAO activity (% relative to benzylamine) Human [1]: 0.00% | SSAO activity (% relative to benzylamine) Mouse [2]: 3.77%

Cc1ccc(CN)cc1F [Entry 16, (3-fluoro-4-methylphenyl)methanamine]
SSAO activity (% relative to benzylamine) Human [1]: 7.07% | SSAO activity (% relative to benzylamine) Mouse [2]: 33.49%

COc1cc(F)cc(CN)c1 [Entry 17, (3-fluoro-5-methoxyphenyl)methanamine]
SSAO activity (% relative to benzylamine) Human [1]: 2.53% | SSAO activity (% relative to benzylamine) Mouse [2]: 4.86%

COc1cccc(O)c1CN [Entry 19, 2-(aminomethyl)-3-methoxyphenol]
SSAO activity (% relative to benzylamine) Human [1]: 0.00% | SSAO activity (% relative to benzylamine) Mouse [2]: 0.00%

NCc1ccc(OCc2ccccc2)cc1 [Entry 20, (4-(benzyloxy)phenyl)methanamine]
SSAO activity (% relative to benzylamine) Human [1]: 0.0% | SSAO activity (% relative to benzylamine) Mouse [2]: 0.0%

NCc1cccc2c1OCCO2 [Entry 21, (2,3-dihydrobenzo-[b][1,4]dioxin-5-yl)methanamine]
SSAO activity (% relative to benzylamine) Human [1]: 0.00% | SSAO activity (% relative to benzylamine) Mouse [2]: 12.36%

COc1ccc(CN)cc1 [Entry 22, (4-methoxyphenyl)methanamine]
SSAO activity (% relative to benzylamine) Human [1]: 0.00% | SSAO activity (% relative to benzylamine) Mouse [2]: 4.56%

NCc1ccccc1F [Entry 23, (2-fluorophenyl)methanamine]
SSAO activity (% relative to benzylamine) Human [1]: 1.3% | SSAO activity (% relative to benzylamine) Mouse [2]: 44.0%

COc1cc(CN)cc(OC)c1 [Entry 24, (3,5-dimethoxyphenyl)methanamine]
SSAO activity (% relative to benzylamine) Human [1]: 0.00% | SSAO activity (% relative to benzylamine) Mouse [2]: 0.75%

NCc1ccc(CN)cc1 [Entry 25, 1,4-phenylene dimethanamine]
SSAO activity (% relative to benzylamine) Human [1]: 0.00% | SSAO activity (% relative to benzylamine) Mouse [2]: 0.00%

NCc1cccc(CN)c1 [Entry 26, 1,3-phenylene dimethanamine]
SSAO activity (% relative to benzylamine) Human [1]: 0.00% | SSAO activity (% relative to benzylamine) Mouse [2]: 0.00%

NCc1ccc(C(=O)O)cc1 [Entry 27, 4-(aminomethyl)benzoic acid]
SSAO activity (% relative to benzylamine) Human [1]: 0.00% | SSAO activity (% relative to benzylamine) Mouse [2]: 4.06%

COc1ccc(CN)c2ccccc12 [Entry 28, (4-methoxynaphthalen-1-yl)methanamine]
SSAO activity (% relative to benzylamine) Human [1]: 0.70% | SSAO activity (% relative to benzylamine) Mouse [2]: 0.00%

NCc1c(O)ccc2ccccc12 [Entry 29, 1-(aminomethyl)naphthalen-2-ol]
SSAO activity (% relative to benzylamine) Human [1]: 0.00% | SSAO activity (% relative to benzylamine) Mouse [2]: 0.00%

CC(N)c1cccc2ccccc12 (stereo not shown) [Entry 30, 1-(naphthalen-1-yl)ethanamine]
SSAO activity (% relative to benzylamine) Human [1]: 11.00% | SSAO activity (% relative to benzylamine) Mouse [2]: 0.00%

NCCc1ccccc1 [Entry 41, 2-phenylethanamine]
SSAO activity (% relative to benzylamine) Human [1]: 8.20% | SSAO activity (% relative to benzylamine) Mouse [2]: 6.80%

NCCCc1ccccc1 [Entry 42, 3-phenylpropan-1-amine]
SSAO activity (% relative to benzylamine) Human [1]: 60.30% | SSAO activity (% relative to benzylamine) Mouse [2]: 44.80%

NCCOc1ccccc1 [Entry 43, 2-phenoxyethanamine]
SSAO activity (% relative to benzylamine) Human [1]: 17.93% | SSAO activity (% relative to benzylamine) Mouse [2]: 14.60%

NCCCCc1ccccc1 [Entry 44, 4-phenylbutan-1-amine]
SSAO activity (% relative to benzylamine) Human [1]: 147.63% | SSAO activity (% relative to benzylamine) Mouse [2]: 61.18%

COc1cccc2[nH]cc(CN)c12 [Entry 45, (4-methoxy-1H-indol-3-yl)methanamine]
SSAO activity (% relative to benzylamine) Human [1]: 0.00% | SSAO activity (% relative to benzylamine) Mouse [2]: 5.54%

NCCc1ccc(F)cc1 [Entry 46, 2-(4-fluorophenyl)ethanamine]
SSAO activity (% relative to benzylamine) Human [1]: 16.30% | SSAO activity (% relative to benzylamine) Mouse [2]: 59.80%

NCCc1ccc(O)c(O)c1 [Entry 47, 4-(2-aminoethyl)benzene-1,2-diol]
SSAO activity (% relative to benzylamine) Human [1]: 0.00% | SSAO activity (% relative to benzylamine) Mouse [2]: 0.00%

COc1ccc(CCN)cc1OC [Entry 48, 2-(3,4-dimethoxyphenyl)ethanamine]
SSAO activity (% relative to benzylamine) Human [1]: 0.00% | SSAO activity (% relative to benzylamine) Mouse [2]: 3.80%
